We go through 7 molecules from article PMC12376128, “In vitro and In Vivo Drug Metabolism Analysis of BPI-460372 - A Covalent TEAD1/3/4 Inhibitor” (Current Drug Metabolism, 2025).

The subject of data set [1] is CYP3A4. The data set is described as follows: Metabolic stability in HLMs with or without specific CYP inhibitor (ketoconazole). It counts as in vitro ADME, human. Conditions: HLMs 1 mg protein/mL, substrate 1 μM, ketoconazole 20 µM. As for the experimental part: (§1) Before starting the experiments, the HLMs were thawed gently on ice. Metabolic stability incubations were performed at 37 °C. The incubations contained 100 mM phosphate buffer saline (PBS, pH 7.4), HLMs (1 mg protein·mL^-1), dimethyl sulfoxide (DMSO, blank control) or a selective CYP inhibitor, and BPI-460372 or positive control substrates (final incubation concentration, 1 μM). The incubation process started with the addition of NADPH (1 mM final concentration) after a 5-minute preincubation period. The chemical inhibitors were as follows: a-naphthoflavone (2 µM) for CYP1A2, ticlopidine (20 µM) for 2B6, quercetin (20 µM) for CYP2C8, sulfaphenazole (20 µM) for CYP2C9, ticlopidine (200 µM) for CYP2C19, quinidine (20 µM) for CYP2D6, and ketoconazole (20 µM) for CYP3A [9]. Aliquots were maintained in acetonitrile containing internal standard (IS) at various time points, such as 0 min, 5 min, 10 min, 20 min, 30 min, and 60 min. All incubations were performed in triplicate, and the concentration in the supernatant was determined by liquid chromatography-tandem mass spectrometry (LC-MS/MS).
(§2) The elimination rate constant k (min^-1) was obtained by linear regression from the natural logarithm of the […] of the parent drug and the incubation time. The inhibition rate was calculated using equation 1 [10]: […]

Data set [2] addresses T1, recombinant human CYP3A4 (Homo sapiens, UniProt P08684).
T1 construct: purchased Cypex Ltd. (Dundee, UK)
The data set is described as follows: Metabolic stability in recombinant human CYP isoenzymes. Conditions: rCYP3A4, 1 µM. Format: in vitro ADME. As for the experimental part:
(§3) To identify the specific isoform that participates in the metabolism of BPI-460372, 1 µM BPI-460372 or positive control substrates were mixed with recombinant human CYP1A2, 2B6, 2C8, 2C9, 2C19, 2D6 or 3A4 (100 pmol P450·mL^-1), and the reaction was started by the addition of NADPH (1 mM final concentration) after 5-minute preincubation at 37°C. Aliquots were maintained in acetonitrile containing IS at different time points at 0 min, 5 min, 10 min, 20 min, 30 min, and 60 min. All incubations were performed in triplicate, and the concentration of the supernatant was determined by LC-MS/MS.
(§4) A substrate depletion approach was employed to determine the intrinsic clearance (CLint (rCYPj)) for each isoform. The contribution of each isoform was estimated using equations 2 and 3. CYPj abundance was evaluated as the abundance (CYPj) of each isoform in HLMs (pmol/mg protein).

Data set [3] can be described thus: Metabolite identification in rat plasma, urine, feces and bile. Format: in vivo, SD rats. As to the method:
(§5) The plasma samples were acquired from SD rats (n=6, 3 female and 3 male) and beagle dogs (n=6, 3 female and 3 male) after administration of 12 mg/kg and 8 mg/kg of BPI-460372, respectively. The rat urine, feces, and bile samples were acquired in SD rats after administration of 6 mg/kg of BPI-460372.
(§6) Equal volume from each rat was pooled together to get 1 male and 1 female 0-24 h plasma samples. An equal percentage by volume of individual urine sample (0-8, 8-24, and 24-48 h) from 3 female and 3 male rats was pooled by time interval across rats, respectively, resulting in two pooled urine samples (1 male and 1 female). An equal percentage by weight of individual feces samples (0-8, 8-24, and 24-48 h) was pooled by time interval across female and male rats, resulting in two pooled fecal samples. An equal percentage by volume of individual bile samples (0-4, 4-8, 8-24, and 24-48 h) was pooled by time interval across female and male rats, resulting in two pooled bile samples. […] Equal volumes from 3 female and 3 male rats were pooled together to get two 0-48 h plasma samples. For blank samples of plasma, urine, and bile, equal volume was pooled across subjects. For a blank sample of feces, equal weight was pooled across rats.
(§7) The pooled plasma, feces, and bile samples were extracted by adding 3-fold volume of acetonitrile, and the mixture was vortexed (1 min) and sonicated (1 min) before centrifugation (7220 g, 5 min). The pooled urine samples were centrifuged (7220 g, 5 min). Then the supernatant was transferred into a clean tube and evaporated to dryness under the nitrogen stream. The residues were redissolved with an appropriate volume of acetonitrile/water (20: 80, v: v). After centrifugation, the redissolved solution was transferred into an HPLC vial for UHPLC-Orbitrap-HRMS (15000 g, 10 min, 4°C).

In data set [4] the test system is rat hepatocytes. The data set is described as follows: Metabolism and metabolite formation in hepatocytes. Format: in vitro ADME, SD rat. From the text: (§8) All the samples were duplicates.
Data set [5] deals with TEAD palmitoylation. As to the kind of experiment: Inhibition of TEAD palmitoylation (in vitro). Conditions: in vitro studies. Format: biochemical.
The test system of data set [6] is monkey hepatocytes. The data set is described as follows: Metabolism and metabolite formation in hepatocytes. Format: in vitro ADME, cynomolgus monkey.
Excerpt: as §8

Data set [7] has as its system mouse hepatocytes. As to the kind of experiment: Metabolism and metabolite formation in hepatocytes. It counts as in vitro ADME, ICR mouse.
Excerpt: as §8

For data set [8], the system named is TEAD proteins. As to the kind of experiment: Covalent binding to TEAD proteins (in vitro). Conditions: in vitro studies.
Data set [9] concerns dog hepatocytes. The data set is described as follows: Metabolism and metabolite formation in hepatocytes. Format: in vitro ADME, beagle dog.
Excerpt: as §8

Data set [10] has as its system human hepatocytes. As to the kind of experiment: Metabolism and metabolite formation in hepatocytes.
Data set [11] deals with cysteine S-conjugate β-lyase. As to the kind of experiment: Effect of cysteine S-conjugate β-lyase inhibitor AOAA on the metabolism of BPI-460372 (rat urine). Conditions: 20 mg/kg BPI-460372 + 100 mg/kg AOAA, once daily 21 days, urine 0-48 h on day 21.
Data set [12] in a line: Metabolite identification in dog plasma. Conditions: oral 8 mg/kg BPI-460372, average of male and female pooled samples. It counts as in vivo, beagle dogs. As to the method:
as §5, §6, §7

The nature of data set [13]: Formation of M335 in HLMs with and without NADPH. As to conditions: 45 minutes of incubation of BPI-460372 with HLMs. It counts as in vitro ADME, human.
For data set [14], the target named is T2, CYP2C9 (Homo sapiens, UniProt P11712). The data set is described as follows: Metabolic stability in HLMs with or without specific CYP inhibitor (sulfaphenazole). On the set-up: HLMs (1 mg protein·mL^-1); tissue BioIVT; host or cells: pooled human liver microsomes. Format: in vitro ADME. Conditions: 1 µM, pH 7.4. As to the method: as §1, §2
The target of data set [15] is T2, CYP2C9. The data set is described as follows: Metabolic stability in recombinant human CYP isoenzymes. It counts as in vitro ADME. On the set-up: purchased Cypex Ltd. (Dundee, UK). As to conditions: rCYP2C9, 1 µM. As for the experimental part: as §3, §4
The test system of data set [16] is CYPs and GSTs. On the set-up: method as in earlier work. As to conditions: multiple CYPs and GSTs pathways; cited from earlier work.
Data set [17] has as its system human hepatocytes. As to conditions: 0 h.
On the set-up of data set [18]: method as in PMID 32250617. As to conditions: mouse whole blood, compared with compound 18 (acrylamide warhead); cited from earlier work.
On the set-up of data set [19]: method as in PMID 32250617. As to conditions: human whole blood, compared with compound 18 (acrylamide warhead); cited from earlier work.
On the set-up of data set [20]: method as in PMID 32250617. Conditions: dog whole blood, compared with compound 18 (acrylamide warhead); cited from earlier work.
Data set [21] addresses T3, CYP2D6 (Homo sapiens, UniProt P10635). As to the kind of experiment: Metabolic stability in recombinant human CYP isoenzymes. Format: in vitro ADME. Also noted: purchased Cypex Ltd. (Dundee, UK). Conditions: in 5 min. As for the experimental part: as §3, §4
Data set [22] concerns the target T3, CYP2D6. The data set is described as follows: Metabolic stability in HLMs with or without specific CYP inhibitor (quinidine). It counts as in vitro ADME. Conditions: HLMs 1 mg protein/mL, substrate 1 μM, quinidine 20 µM. On the set-up: HLMs (1 mg protein·mL^-1); tissue BioIVT; host or cells: pooled human liver microsomes. As to the method: as §1, §2
Where [23] appears, read: oral 6 mg/kg BPI-460372, average of male and female pooled samples.

Structures are written as SMILES. Read-outs that look alike come from different tables or passages of the source.

T2 sequence (P11712 whole entry): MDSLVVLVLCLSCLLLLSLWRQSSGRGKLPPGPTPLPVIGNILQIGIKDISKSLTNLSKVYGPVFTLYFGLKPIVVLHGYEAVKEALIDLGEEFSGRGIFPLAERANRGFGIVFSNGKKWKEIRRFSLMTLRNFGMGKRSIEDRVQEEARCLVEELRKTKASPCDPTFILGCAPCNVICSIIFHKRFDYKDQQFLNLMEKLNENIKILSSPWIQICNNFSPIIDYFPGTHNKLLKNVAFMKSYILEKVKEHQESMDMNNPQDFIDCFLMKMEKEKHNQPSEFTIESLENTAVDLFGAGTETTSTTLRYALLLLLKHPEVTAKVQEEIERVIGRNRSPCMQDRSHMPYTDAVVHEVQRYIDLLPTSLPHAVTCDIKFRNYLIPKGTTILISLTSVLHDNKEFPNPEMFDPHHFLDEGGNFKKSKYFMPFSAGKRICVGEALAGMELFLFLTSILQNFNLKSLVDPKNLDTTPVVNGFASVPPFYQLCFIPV
T3 sequence (P10635 whole entry): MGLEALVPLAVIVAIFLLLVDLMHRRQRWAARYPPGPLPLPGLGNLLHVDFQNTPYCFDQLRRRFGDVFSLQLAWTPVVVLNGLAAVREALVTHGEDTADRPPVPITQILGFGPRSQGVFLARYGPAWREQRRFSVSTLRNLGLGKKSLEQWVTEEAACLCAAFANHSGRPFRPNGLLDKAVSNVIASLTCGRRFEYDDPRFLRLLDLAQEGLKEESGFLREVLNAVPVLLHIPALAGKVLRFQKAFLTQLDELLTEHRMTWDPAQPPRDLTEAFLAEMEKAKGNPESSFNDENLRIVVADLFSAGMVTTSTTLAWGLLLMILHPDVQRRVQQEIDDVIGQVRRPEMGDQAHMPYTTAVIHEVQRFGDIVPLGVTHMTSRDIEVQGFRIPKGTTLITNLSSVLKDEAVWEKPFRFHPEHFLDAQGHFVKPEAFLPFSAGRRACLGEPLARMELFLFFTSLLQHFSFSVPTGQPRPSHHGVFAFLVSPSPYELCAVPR
T1 sequence (P08684 whole entry): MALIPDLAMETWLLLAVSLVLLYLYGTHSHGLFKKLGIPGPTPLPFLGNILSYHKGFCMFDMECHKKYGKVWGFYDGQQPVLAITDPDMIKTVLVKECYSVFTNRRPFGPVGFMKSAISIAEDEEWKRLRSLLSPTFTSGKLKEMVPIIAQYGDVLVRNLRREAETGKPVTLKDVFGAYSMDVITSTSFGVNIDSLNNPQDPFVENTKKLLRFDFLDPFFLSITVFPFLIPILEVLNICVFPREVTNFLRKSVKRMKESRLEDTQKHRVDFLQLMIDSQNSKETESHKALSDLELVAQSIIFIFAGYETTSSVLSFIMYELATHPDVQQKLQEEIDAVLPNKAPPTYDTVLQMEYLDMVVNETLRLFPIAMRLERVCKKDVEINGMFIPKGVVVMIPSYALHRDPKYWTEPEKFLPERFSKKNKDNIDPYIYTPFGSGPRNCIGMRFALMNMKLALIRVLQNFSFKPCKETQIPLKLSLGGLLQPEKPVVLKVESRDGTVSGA

As for `Cc1ncc2n1-c1ccc(Cl)cc1C(c1ccccc1F)=NC2` [Midazolam, midazolam, reference compound], the “Inhibition Rate” value in [1] is listed as 99.7%. Also, the “CLint (rCYPj)” value in [2] turned out to be 1.93 µL/min/pmol.
As to `O=c1n(-c2ccc(C(F)(F)F)cc2)c2nccnc2n1C1CNC1` [M335 (BPI-460608)], the “Relative abundance of MS peak areas, Rat Bile 0-48 h” value in [3] (setting [23]) came out at 0.070%. In addition, the “Relative abundance of MS peak areas, Rat Feces 0-48 h” value in data set [3] (setting [23]) is 4.83%. Besides, in data set [3] (setting [23]), the “Relative abundance of MS peak areas, Rat Urine 0-48 h” value amounted to 13.23%. In addition, the “Relative abundance of MS peak areas, Rat Plasma 0-24 h” value in data set [3] (oral 12 mg/kg BPI-460372, average of male and female pooled samples) is reported as 2.48%. Moreover, the “UV (314 nm) Peak Areas Relative Abundance” value in data set [4] (SD rat hepatocytes, 10 µM BPI-460372, 4 h incubation) amounted to 3.9%; in data set [6] (cynomolgus monkey hepatocytes, 10 µM BPI-460372, 4 h incubation), 16.99%; in data set [7] (ICR mouse hepatocytes, 10 µM BPI-460372, 4 h incubation) it was 26.4%; in data set [9] (beagle dog hepatocytes, 10 µM BPI-460372, 4 h incubation), 18.82%; in data set [10] (human hepatocytes, 10 µM BPI-460372, 4 h incubation), 11.47%. Further, the “Activity: inhibition of TEAD palmitoylation” value in data set [5] is “inactive”. In addition, in data set [8], the “Covalent binding to TEAD proteins” value was “do not covalently bind”. For the same molecule, the “Area ratio in rat urine, mean (%CV)” value in data set [11] was 1.41 (48). For the same molecule, the “Relative abundance of MS peak areas, Dog Plasma 0-48 h” value in data set [12] is given as 8.45%. Moreover, in data set [13], the “Formation of M335 without NADPH versus HLMs+NADPH group” value is “comparable”.
Take `O=C(O)Cc1ccccc1Nc1c(Cl)cccc1Cl` [Diclofenac, diclofenac, reference compound]: the “Inhibition Rate” value in data set [14] stood at 98.2%. The “CLint (rCYPj)” value in [15] amounted to 3.53 µL/min/pmol.
As for `C=CC(=O)N1C[C@H](Nc2ncnc3[nH]ccc23)CC[C@@H]1C` [Ritlecitinib], the “Contribution of any single route to the total metabolism” value in data set [16] is recorded as not above 25%.
`CCOc1ccc2ccc(=O)oc2c1` [7-EC, 7-ethoxycoumarin, reference compound]: the “Area Ratio T0 h” value in [4] (rat hepatocytes, 7-EC incubation, 0 h) came out at 2.64E+07; in [6] (monkey hepatocytes, 7-EC incubation, 0 h) it was 2.65E+07; in [17], 3.36E+07; in [7] (mouse hepatocytes, 7-EC incubation, 0 h), 2.39E+07; in data set [9] (dog hepatocytes, 7-EC incubation, 0 h), 2.18E+07. Also, the “Area Ratio T4 h” value is on record as 6.62E+06 in data set [4] (rat hepatocytes, 7-EC incubation, 4 h); 9.51E+04 in data set [6] (monkey hepatocytes, 7-EC incubation, 4 h); 1.46E+05 in data set [7] (mouse hepatocytes, 7-EC incubation, 4 h); 1.01E+05 in data set [9] (dog hepatocytes, 7-EC incubation, 4 h); 7.50E+06 in data set [10] (human hepatocytes, 7-EC incubation, 4 h). In addition, the “Proportion of 7-EC remaining in hepatocytes after 4 h incubation” value in data set [4] (rat, hepatocytes) amounted to 25.08%; in data set [6] (monkey, hepatocytes) it was 0.36%; in data set [7] (mouse, hepatocytes) it was 0.61%; in data set [9] (dog, hepatocytes) it was 0.46%; in data set [10] (human, hepatocytes) it was 22.32%.
On to `C=C(F)C(=O)N1CCN(c2nc(OC[C@@H]3CCCN3C)nc3c2CCN(c2cccc4cccc(Cl)c24)C3)C[C@@H]1CC#N` [Adagrasib], for which the “Stability in whole blood” value in data set [18], in data set [19] and in [20] was “higher stability” throughout.
Regarding `COc1ccc2c(c1)[C@]13CCCC[C@@H]1[C@H](C2)N(C)CC3` [Dextromethorphan, reference compound], in data set [21], the “Extent of metabolism in recombinant human CYP2D6” value was “completely metabolized”. The “Inhibition Rate” value in data set [22] is recorded as 87.1%.
